This passage reports Km results from paper PMC4434416, “Purification and biochemical characterization of a newly produced yellow laccase from Lentinus squarrosulus MR13” (3 Biotech, 2014).

SMILES strings stand for the structures.

This test has as its system yellow laccase. As to conditions: 35 °C; pH of the kinetic assay not stated; printed ABTS range 40–600 mM.

As for `CCn1c(=NN=c2sc3cc(S(=O)(=O)O)ccc3n2CC)sc2cc(S(=O)(=O)O)ccc21` [ABTS, 2,2′-Azinobis-(3-ethylbenzothiazoline-6-sulfonic acid)], the Km came out at 71.4 µM.
